The term IC50 denotes the concentration that gives 50% inhibition.

This is an account of results in patent US20250326753A1, “DUAL CXCR4-BTK INHIBITORS” (X4 Pharmaceuticals, Inc., priority 2022, published 2025).

Where two headings read alike, the source gives them in different places.

In test [1] the target is T1, MST1 (Homo sapiens, UniProt Q13043).
T1 construct: purchased Reaction Biology Europe GmbH
T1 sequence (Q13043 1-487): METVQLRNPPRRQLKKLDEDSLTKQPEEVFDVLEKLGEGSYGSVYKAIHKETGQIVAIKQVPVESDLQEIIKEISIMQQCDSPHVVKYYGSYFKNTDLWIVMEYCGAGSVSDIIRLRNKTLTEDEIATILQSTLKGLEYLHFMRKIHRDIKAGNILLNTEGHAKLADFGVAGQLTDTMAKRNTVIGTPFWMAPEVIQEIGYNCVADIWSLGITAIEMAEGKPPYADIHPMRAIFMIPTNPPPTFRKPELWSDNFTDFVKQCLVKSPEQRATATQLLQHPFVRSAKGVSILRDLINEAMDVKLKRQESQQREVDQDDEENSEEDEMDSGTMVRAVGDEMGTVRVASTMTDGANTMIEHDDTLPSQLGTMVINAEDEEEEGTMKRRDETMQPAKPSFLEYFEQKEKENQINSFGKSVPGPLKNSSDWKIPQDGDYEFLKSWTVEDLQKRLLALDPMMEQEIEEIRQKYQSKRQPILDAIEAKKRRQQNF
The test is described as follows: PanQinase kinase panel: MST1. To be noted: read-out: INHIBITORY EFFECT @ 1 uM: MST1. The test is classed as biochemical. As to the method: (§1) Screening procedures were performed in accordance with the company's on-line protocol [accessed on-line Mar.
(§2) For each kinase, the median value of the cpm of three wells was defined as “low control” (n=3). This value reflects unspecific binding of radioactivity to the plate in the absence of a protein kinase but in the presence of the substrate. Additionally, for each kinase the median value of the cpm of three other wells was taken as the “high control,” i.e. full activity in the absence of any inhibitor (n=3). The difference between high and low control of each enzyme was taken as 100% activity.
(§3) As part of the data evaluation the low control of each kinase was subtracted from the high control value as well as from their corresponding “compound values”. The residual activity (in %) for each compound well was calculated by using the following formula: Res. Activity (%)=100×[(signal of compound−low control)/(high control−low control)].

For test [2], the target named is T2, ACK1 (Homo sapiens, UniProt Q07912).
T2 construct: purchased Reaction Biology Europe GmbH
T2 sequence (Q07912 whole entry): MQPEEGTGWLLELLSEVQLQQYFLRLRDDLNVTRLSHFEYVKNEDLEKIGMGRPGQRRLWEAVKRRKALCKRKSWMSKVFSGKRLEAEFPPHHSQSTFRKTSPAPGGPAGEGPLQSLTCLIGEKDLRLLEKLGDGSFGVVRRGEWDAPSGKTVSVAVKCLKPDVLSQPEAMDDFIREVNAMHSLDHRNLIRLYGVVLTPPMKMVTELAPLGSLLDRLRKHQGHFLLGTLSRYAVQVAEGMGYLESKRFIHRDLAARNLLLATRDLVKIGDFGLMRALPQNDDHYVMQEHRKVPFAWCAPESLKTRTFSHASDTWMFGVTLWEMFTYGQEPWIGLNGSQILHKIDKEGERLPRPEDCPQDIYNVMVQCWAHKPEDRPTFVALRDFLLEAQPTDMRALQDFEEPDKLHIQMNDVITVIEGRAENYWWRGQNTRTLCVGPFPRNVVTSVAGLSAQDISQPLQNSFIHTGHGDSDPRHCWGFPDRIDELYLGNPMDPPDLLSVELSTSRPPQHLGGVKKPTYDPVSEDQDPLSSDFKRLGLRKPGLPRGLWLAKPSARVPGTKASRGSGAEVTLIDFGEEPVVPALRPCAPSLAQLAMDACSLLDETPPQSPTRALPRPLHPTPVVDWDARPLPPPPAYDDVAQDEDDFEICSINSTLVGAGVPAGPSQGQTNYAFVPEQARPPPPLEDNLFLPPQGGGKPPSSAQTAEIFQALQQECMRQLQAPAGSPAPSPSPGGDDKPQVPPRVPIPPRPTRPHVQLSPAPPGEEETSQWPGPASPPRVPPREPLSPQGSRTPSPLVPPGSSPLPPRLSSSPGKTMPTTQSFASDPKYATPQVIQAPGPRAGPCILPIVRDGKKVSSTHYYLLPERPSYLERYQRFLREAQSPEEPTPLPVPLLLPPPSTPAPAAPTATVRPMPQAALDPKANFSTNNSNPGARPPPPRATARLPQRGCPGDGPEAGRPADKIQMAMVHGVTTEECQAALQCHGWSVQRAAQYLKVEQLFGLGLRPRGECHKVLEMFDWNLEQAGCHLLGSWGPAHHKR
Briefly: PanQinase kinase panel: ACK1. The format is biochemical. As to the method:
as §1, §2, §3

The test system of test [3] is MWCL-1. Briefly: Apoptosis assay (annexin V flow cytometry) in Waldenstrom's Macroglobulinemia cells. The format is cell-based, human. To be noted: for IC50: Homo sapiens, read-out: Apoptosis IC50 (μM) in single-mutant WM Cell Lines (MWCL-1); for promoting apoptosis in WM cells (MWCL-1) compared with ibrutinib or zanubrutinib alone: in words. The method, then: Waldenström's Macroglobulinemia cells (MWCL-1) and the bone marrow stromal cells (BMSCs; HS-27A) were used in this study. The MWCL-1 is a lymphoplasmacytic lymphoma established from the bone marrow aspirate of a patient diagnosed with Waldenström's Macroglobulinemia. It was provided by Dr Stephen M. Ansell (MAYO file number 2021-121; 200 First Street SW, Rochester, Minnesota). This cell line was cultured in RPMI-1640 (Fisher Scientific) containing 10% fetal bovine serum (FBS) (Sigma Aldrich, St Louis, MO), 100U/ml of Penicillin-Streptomycin (Gibco™, ThermoFisher Scientific). The HS-27A bone marrow stromal cells were obtained from ATCC. They were maintained in RPMI 1640 (Fisher Scientific) supplemented with 100U/ml of Penicillin-Streptomycin (Gibco™, ThermoFisher Scientific) and 10% FBS (TakaraBio). Cells were cultured in a 37° C. tissue culture CO2 incubator.
For studies with compounds using a co-culture system of MWCL-1 and BMSCs, BMSCs were cultured in a 96-, 48- or 24-well plates and cultured until the 90% confluence was reached. […] After 1 hour, the MWCL-Icells were added to the BMSC to create a co-culture system. The cells were co-incubated for 72 hours. After incubation time, cell viability, apoptosis, and IgM release were measured.
For studying the effect of compounds on inducing apoptosis of Waldenström Macroglobulinemia cells (MWCL-1). Cells were washed with PBS, resuspended in Annexin V binding buffer (Biolegend), and stained with Alexa Fluor 647 annexin V (Biolegend), Propidium Iodide (BD Pharmigen), and CD45 antibody (Biolegend) for 15 minutes at RT and analyzed by flow cytometry. Data were collected on an CytoFLEX S Flow Cytometer (Beckman Coulter) and analysed with FCS Express Software (De Novo Software). Annexin V positive cells were considered apoptotic.
(Flow cytometry measures light scatter and fluorescence of single cells or particles in a stream.)

In test [4] the target is T3, CDK13/CycK (Homo sapiens, UniProt Q14004).
T3 construct: purchased Reaction Biology Europe GmbH
T3 sequence (Q14004 whole entry): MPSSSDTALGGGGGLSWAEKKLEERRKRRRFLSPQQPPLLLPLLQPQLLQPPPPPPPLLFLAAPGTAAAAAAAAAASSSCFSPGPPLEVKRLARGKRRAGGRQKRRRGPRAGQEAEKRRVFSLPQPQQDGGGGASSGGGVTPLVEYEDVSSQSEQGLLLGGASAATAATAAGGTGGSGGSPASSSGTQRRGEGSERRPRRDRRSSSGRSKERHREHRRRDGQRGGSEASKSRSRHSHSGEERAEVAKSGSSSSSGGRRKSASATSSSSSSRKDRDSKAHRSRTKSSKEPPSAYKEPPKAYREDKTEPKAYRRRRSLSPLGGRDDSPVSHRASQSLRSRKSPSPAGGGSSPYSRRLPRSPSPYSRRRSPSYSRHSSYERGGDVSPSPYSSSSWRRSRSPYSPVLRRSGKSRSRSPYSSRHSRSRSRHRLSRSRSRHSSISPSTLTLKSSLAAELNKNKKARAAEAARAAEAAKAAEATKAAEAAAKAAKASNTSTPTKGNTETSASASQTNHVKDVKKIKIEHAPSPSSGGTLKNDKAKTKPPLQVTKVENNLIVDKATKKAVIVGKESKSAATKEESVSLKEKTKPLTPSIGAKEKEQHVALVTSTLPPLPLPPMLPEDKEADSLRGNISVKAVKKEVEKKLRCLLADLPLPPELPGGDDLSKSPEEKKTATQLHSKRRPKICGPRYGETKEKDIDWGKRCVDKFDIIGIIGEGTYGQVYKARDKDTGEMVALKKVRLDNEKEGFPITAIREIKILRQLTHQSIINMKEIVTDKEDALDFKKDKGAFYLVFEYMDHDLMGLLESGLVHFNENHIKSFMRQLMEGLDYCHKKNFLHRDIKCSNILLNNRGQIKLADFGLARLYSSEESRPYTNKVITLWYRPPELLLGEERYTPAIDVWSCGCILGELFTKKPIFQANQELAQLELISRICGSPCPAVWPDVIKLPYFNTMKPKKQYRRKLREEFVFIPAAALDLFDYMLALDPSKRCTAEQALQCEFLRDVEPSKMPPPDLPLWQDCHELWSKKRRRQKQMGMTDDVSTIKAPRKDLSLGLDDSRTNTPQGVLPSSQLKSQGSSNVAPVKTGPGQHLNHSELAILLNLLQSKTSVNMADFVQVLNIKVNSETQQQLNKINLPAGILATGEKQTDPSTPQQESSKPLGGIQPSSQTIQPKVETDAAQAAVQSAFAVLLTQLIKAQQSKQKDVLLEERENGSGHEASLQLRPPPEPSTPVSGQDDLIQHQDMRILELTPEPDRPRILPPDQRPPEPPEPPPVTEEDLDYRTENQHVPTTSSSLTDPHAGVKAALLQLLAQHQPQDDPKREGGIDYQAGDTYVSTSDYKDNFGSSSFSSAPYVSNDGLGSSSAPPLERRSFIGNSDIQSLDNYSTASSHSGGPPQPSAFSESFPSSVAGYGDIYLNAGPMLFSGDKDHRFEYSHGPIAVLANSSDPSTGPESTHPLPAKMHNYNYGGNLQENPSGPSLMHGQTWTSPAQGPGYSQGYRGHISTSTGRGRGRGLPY
T3 sequence (O75909 whole entry partner): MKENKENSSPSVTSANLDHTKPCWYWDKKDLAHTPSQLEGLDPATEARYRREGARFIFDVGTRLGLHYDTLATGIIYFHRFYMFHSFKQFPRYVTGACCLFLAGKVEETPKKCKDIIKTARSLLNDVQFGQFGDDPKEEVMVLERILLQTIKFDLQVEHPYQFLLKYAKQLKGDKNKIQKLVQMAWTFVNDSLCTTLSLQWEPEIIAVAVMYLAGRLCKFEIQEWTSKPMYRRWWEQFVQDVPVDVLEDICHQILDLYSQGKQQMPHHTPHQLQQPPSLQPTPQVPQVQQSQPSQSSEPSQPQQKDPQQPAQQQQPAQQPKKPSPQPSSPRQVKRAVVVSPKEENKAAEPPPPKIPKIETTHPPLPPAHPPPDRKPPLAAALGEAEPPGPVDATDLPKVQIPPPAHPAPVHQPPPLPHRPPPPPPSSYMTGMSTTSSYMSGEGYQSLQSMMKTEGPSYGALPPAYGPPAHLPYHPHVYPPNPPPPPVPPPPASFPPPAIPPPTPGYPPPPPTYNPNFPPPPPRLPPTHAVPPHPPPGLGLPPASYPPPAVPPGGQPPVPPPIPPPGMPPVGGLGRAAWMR
Briefly: PanQinase kinase panel: CDK13/CycK. The format is biochemical. As to the method: Screening procedures were performed in accordance with the company's on-line protocol [accessed on-line Mar. 25, 2022 at reaction biology.com/assay-protocol-panqinase]. Inhibitory activity of 50% or greater at concentrations of 1 μM are highlighted for all five compounds tested.
as §2, §3

The test system of test [5] is 340 wild-type protein kinases. Briefly: PanQinase wild-type kinase panel, selectivity score. The test is classed as biochemical. The following applies: 1 μM; for Selectivity Score: share of kinases with residual activity <50%, 340 wild-type protein kinase assays. The method, then:
as §1
The selectivity score for a particular compound at a particular concentration was calculated by using the following formula: Selectivity Score=(count of data points <50%)/(total number of data points).

The target of test [6] is T4, MAP3K11 (Homo sapiens, UniProt Q16584).
T4 construct: purchased Reaction Biology Europe GmbH
T4 sequence (Q16584 whole entry): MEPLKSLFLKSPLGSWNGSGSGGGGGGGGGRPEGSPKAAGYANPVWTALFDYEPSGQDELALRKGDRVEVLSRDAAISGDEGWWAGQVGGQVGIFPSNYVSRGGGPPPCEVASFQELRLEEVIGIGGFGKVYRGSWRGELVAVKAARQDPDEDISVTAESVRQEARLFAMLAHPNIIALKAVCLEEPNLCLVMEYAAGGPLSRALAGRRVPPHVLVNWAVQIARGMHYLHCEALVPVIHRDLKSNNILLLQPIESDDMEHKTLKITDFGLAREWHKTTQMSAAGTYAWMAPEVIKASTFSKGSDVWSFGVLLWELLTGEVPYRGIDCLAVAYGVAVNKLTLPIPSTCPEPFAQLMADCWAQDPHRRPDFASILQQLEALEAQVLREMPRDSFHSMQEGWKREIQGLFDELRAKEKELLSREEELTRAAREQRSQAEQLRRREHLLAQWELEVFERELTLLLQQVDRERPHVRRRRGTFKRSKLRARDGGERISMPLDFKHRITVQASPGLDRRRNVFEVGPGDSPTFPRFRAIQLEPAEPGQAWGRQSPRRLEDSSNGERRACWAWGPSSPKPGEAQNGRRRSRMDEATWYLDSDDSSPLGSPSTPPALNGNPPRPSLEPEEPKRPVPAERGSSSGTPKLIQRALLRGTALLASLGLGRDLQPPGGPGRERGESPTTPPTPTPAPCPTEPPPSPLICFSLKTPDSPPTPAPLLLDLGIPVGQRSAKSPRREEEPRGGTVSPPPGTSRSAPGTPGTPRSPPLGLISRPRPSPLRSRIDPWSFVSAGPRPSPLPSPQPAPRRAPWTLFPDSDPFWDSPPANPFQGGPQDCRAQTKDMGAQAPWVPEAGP
Briefly: PanQinase kinase panel: MAP3K11. The test is classed as biochemical. The method, then: as §1, §2
As part of the data evaluation the low control of each kinase was subtracted from the high control value as well as from their corresponding “compound values”.

Test [7] deals with T5, ABL1 (Homo sapiens, UniProt P00519).
T5 construct: purchased Reaction Biology Europe GmbH
T5 sequence (P00519 whole entry): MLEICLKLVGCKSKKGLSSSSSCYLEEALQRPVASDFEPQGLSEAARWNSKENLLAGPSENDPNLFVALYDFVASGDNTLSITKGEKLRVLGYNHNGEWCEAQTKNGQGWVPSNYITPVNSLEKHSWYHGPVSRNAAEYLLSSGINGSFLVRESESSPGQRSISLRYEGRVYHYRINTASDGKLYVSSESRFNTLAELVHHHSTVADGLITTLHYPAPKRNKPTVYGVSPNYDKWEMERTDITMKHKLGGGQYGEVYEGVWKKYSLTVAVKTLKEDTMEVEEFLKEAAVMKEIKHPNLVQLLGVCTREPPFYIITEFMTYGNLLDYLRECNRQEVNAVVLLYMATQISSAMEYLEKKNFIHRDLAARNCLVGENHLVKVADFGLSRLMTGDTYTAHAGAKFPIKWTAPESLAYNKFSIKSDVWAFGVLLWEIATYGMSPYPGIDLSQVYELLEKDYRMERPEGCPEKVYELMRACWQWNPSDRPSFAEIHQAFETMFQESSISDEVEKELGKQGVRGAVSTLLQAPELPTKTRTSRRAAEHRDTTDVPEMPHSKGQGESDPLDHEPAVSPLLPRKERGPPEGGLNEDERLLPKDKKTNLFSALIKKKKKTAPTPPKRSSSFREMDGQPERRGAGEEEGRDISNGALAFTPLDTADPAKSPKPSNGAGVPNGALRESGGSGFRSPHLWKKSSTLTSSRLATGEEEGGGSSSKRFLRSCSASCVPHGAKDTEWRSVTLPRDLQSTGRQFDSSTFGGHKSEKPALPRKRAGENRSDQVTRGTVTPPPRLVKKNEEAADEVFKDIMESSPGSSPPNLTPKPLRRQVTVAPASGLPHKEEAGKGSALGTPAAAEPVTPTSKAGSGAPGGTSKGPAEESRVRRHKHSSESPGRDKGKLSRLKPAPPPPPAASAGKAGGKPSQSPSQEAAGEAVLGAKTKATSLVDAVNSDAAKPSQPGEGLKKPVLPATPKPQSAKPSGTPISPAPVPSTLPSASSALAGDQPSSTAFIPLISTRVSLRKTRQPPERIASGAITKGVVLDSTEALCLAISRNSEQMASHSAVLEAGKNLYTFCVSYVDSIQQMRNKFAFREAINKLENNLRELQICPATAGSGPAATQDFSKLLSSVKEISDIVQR
Briefly: PanQinase kinase panel: ABL1. The test is classed as biochemical. As to the method: as §1, §2, §3

[8] abbreviates: read-out: INHIBITORY EFFECT @ 1 uM: ACK1.
The mark [9] stands for this setting: read-out: INHIBITORY EFFECT @ 1 uM: CDK13/CycK.
Setting [10] is: read-out: INHIBITORY EFFECT @ 1 uM: MAP3K11.
The mark [11] stands for this setting: read-out: INHIBITORY EFFECT @ 1 uM: ABL1.

For the compound `O=C(c1ccc(Oc2ccccc2)cc1Cl)c1c[nH]c2ncnc(N[C@@H]3CC[C@@H](CO)OC3)c12` [ARQ-531, (2-chloro-4-phenoxyphenyl) (4-(((3R,6S)-6-(hydroxymethyl)tetrahydro-2H-pyran-3-yl)amino)-7H-pyrrolo[2,3-d]pyrimidin-5-yl) methanone], the inhibition at 1 µM in test [1] lay within 70 to 89%; in test [2] (setting [8]), 90 to 100%.
With `Cc1cccnc1[C@H]1CCC[C@@H](c2ncccc2C)N1CCN1CCN(C(=O)c2ccc(-c3cc4c(-c5cccc(NC(=O)c6ccccc6)c5C)ncnc4[nH]3)cc2)CC1` [Compound I-10, N-(3-(6-(4-(4-(2-((2R,6S)-2,6-bis(3-methylpyridin-2-yl)piperidin-1-yl)ethyl)piperazine-1-carbonyl)phenyl)-7H-pyrrolo[2,3-d]pyrimidin-4-yl)-2-methylphenyl)benzamide], in test [3] (class symbol), the IC50 was in the range of 0.1 to 2 µM. For the same compound, the “promoting apoptosis in WM cells (MWCL-1) compared with ibrutinib or zanubrutinib alone” value in test [3] is recorded as “more effective in promoting apoptosis”. The inhibition at 1 µM in test [4] (at 1 μM, read-out: inhibition of CDK13/CycK) is 50 to 89%; in test [4] (setting [9]), 50 to 69%; in test [1], under 50%; in test [6] (at 1 μM, read-out: inhibition of MAP3K11), 50 to 89%; in test [6] (setting [10]), 50 to 69%; in test [2] (1 μM, read-out: inhibitor effect on ACK1), at least 90%. For the same compound, the inhibition at 1 µM is 90 to 100% in test [2] (setting [8]); 50 to 89% in test [7] (at 1 μM, read-out: inhibition of ABL1); 70 to 89% in test [7] (setting [11]). For the same compound, the “Selectivity Score” value in test [5] came to 0.053. Further, the kinase selectivity profile result in test [5] (panel of approximately 336 wild-type kinases, in words) is on record as “surprisingly high selectivity for BTK inhibition”.
In the case of `Cc1cc(-c2ccnc(Nc3cnn(CCN4[C@@H](c5ncccc5C)CCC[C@H]4c4ncccc4C)c3)n2)ccc1CNC(=O)N1CC(OC(C)C)C1` [Compound I-11], the IC50 in test [3] (class symbol) lay within 0.1 to 2 µM. In addition, the “promoting apoptosis in WM cells (MWCL-1) compared with ibrutinib or zanubrutinib alone” value in test [3] is listed as “more effective in promoting apoptosis”. The “Selectivity Score” value in test [5] is 0.032.
Turning to `Cc1cccnc1[C@H]1CCC[C@@H](c2ncccc2C)N1CCCCNC(=O)[C@@H]1CC[C@@H](Nc2ncnc3[nH]cc(C(=O)c4ccc(Oc5ccccc5)cc4Cl)c23)CO1` [Compound I-16], the “Selectivity Score” value in test [5] is 0.265.
For `Cc1cccnc1[C@H]1CCC[C@@H](c2ncccc2C)N1CCCCNC(=O)OC[C@@H]1CC[C@@H](Nc2ncnc3[nH]cc(C(=O)c4ccc(Oc5ccccc5)cc4Cl)c23)CO1` [Compound I-18], the “Selectivity Score” value in test [5] was 0.221.
As for `COc1ccc(F)cc1C(=O)NCc1ccc(-c2nn([C@@H](C)C(F)(F)F)c(N)c2C(N)=O)cc1` [LOXO-305, pirtobrutinib], the inhibition at 1 µM in test [4] (setting [9]), in test [1], in test [6] (setting [10]), in test [2] (setting [8]) and in test [7] (setting [11]) was under 50% each time.
Consider `C=CC(=O)N1CCC([C@@H]2CCNc3c(C(N)=O)c(-c4ccc(Oc5ccccc5)cc4)nn32)CC1` [Zanubrutinib, (7S)-2-(4-phenoxyphenyl)-7-(1-prop-2-enoylpiperidin-4-yl)-4,5,6,7-tetrahydropyrazolo[1,5-a]pyrimidine-3-carboxamide], for which the IC50 in test [3] (numeric) turned out to be 17.7 µM. Besides, the inhibition at 1 µM in test [4] (setting [9]), in test [1], in test [6] (setting [10]), in test [2] (setting [8]) and in test [7] (setting [11]) was under 50% in each case.
